Test [1] relates to symptoms of ADHD in adults. Description: Clinical Global Impressions-Improvement (CGI-I), same trial. It counts as in vivo, human. The following applies: 14 days; for CGI-I, percent of subjects showing improvement: b136 all subjects. How it is done:
This double-blind, multiple-dose, placebo-controlled, crossover study was conducted to assess the effects of 14 days of oral eltoprazine treatment in 48 adults with ADHD. Subjects eligible for study enrollment were to have met Diagnostic and Statistical Manual of Mental Disorders, Fourth Edition, Text Revision (DSM-IV-TR) criteria for ADHD. Assessment was to be made by clinical history, a Structured Clinical Interview for DSM-IV Axis Disorders-Research Version (SCID-RV), and a Conners' Adult ADHD Diagnostic Interview for DSM IV (CAADID).
Oral doses of eltoprazine hydrochloride were 5 mg/day or 10 mg/day for 14 consecutive days (i.e., 2.5 or 5 mg twice daily (bid), respectively). Eltoprazine hydrochloride was administered in gelatin capsules with calcium hydrogen phosphate, 2H2O, maize starch NF, polyethylene glycol 6000 NF and magnesium stearate NF as excipients.
Secondary endpoints were evaluated with the Clinical Global Impressions-Improvement (CGI-I) and Continuous Performance Test. (CPT). The CGI-I test is used to determine the […] of improvement.

Test [2] deals with 5-HT1D receptor. The following applies: compared with serotonin; Schipper et al.; cited from earlier work.
Test [3] deals with 5-HT1A/1B receptor. As to conditions: cited from earlier work.

As to `c1cc2c(c(N3CCNCC3)c1)OCCO2` [Eltoprazine, 1-(2,3-dihydro-1,4-benzodioxanyl-5-yl) piperazine], the “CGI-I Mean Improvement (S.D.)” value in test [1] (5 mg/day, n = 38) is recorded as 2.6 (1.2); in test [1] (10 mg/day, n = 37) it was 2.7 (0.9). Besides, the “CGI-I, Number of Patients Improved” value in test [1] (5 mg/day, n = 38) was 26; in test [1] (10 mg/day, n = 37), 30. Also, the “CGI-I, Number of Patients Not Improved” value in test [1] (5 mg/day, n = 38) was found to be 12; in test [1] (10 mg/day, n = 37), 7. The “CGI-I, percent of subjects showing improvement” value is given as 62% in test [1] (5 mg/day, b141/b146 subgroup with baseline score >40) and 71% in test [1] (10 mg/day, b141 subgroup with baseline score >40). The “CGI reduction in severity score” value in test [1] (more severely affected population (baseline score >40), 5 mg/day) was determined as 14%. Moreover, the “Binding affinity for the 5-HT1D receptor” value in test [2] is “relatively low affinity”. In addition, the “Functional mode of action” value in test [3] is “mixed 5-HT1A/1B receptor agonist”.

The record behind these values is patent US20180228799A1, “Treatment for Neurological and Mental Disorders” (PSYCHOGENICS, INC., priority 2008, published 2018).
